For orientation: melting point means the temperature, or range, at which the solid turns liquid.

A short description of series [1]: Solubility in toluene at 60° C. In kind it is physicochemical. The protocol: The solubility of Cn-DNTTs (Cn=a linear alkyl chain) are very low in organic solvents (up to ˜80 mg/L in toluene at 60° C.) (see: Adv. Mater. 2011, 23, 1222-1225).

Consider `CCCC(C)c1ccc2cc3c(cc2c1)sc1c2cc4ccc(C(C)CCC)cc4cc2sc31` (stereo not shown) [2,9-1MB-DNTT, 2,9-Bis(1-methylbutyl)dinaphtho [2,3-b:2′,3′-f]thieno[3,2-b]thiophene], for which the melting point lay in the range of 280 to 281 °C.
In the case of `CCCCC(C)c1ccc2cc3c(cc2c1)sc1c2cc4ccc(C(C)CCCC)cc4cc2sc31` (stereo not shown) [2,9-1MP-DNTT, 2,9-Bis(1-methylpentyl)dinaphtho[2,3-b:2′,3′-f]thieno[3,2-b]thiophene], the melting point was 262 to 263 °C. In addition, the solubility result in series [1] (in toluene at 60° C.) is “about 50 g/L”. For the same compound, the “solubility relative to corresponding linear alkyl chain DNTT compounds” value in series [1] (toluene at 60° C., times higher) is on record as greater than 500 times.
